The structures appear in SMILES notation. pIC50: −log10 of the molar value.

T1 sequence (P08254 100-272 limits assumed): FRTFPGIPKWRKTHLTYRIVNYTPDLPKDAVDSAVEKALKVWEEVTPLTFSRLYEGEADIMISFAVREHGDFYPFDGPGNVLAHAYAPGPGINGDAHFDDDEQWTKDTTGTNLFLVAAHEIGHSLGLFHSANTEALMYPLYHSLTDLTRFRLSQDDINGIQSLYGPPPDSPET

One test addresses T1, Recombinant truncated stromelysin (human sequence) (Homo sapiens, UniProt P08254).
T1 construct: made in house; host or cells: E. coli
In words: Determination of Stromelysin Inhibition (cleavage of thiopeptide ester substrate, DTNB, 405 nm). It counts as biochemical.
Conditions: not given
As for the experimental part:
The efficacy of the compounds of this invention as matrix metalloproteinase inhibitors was determined by measuring the inhibition of stromelysin. The inhibition of stromelysin by the compounds of this invention was determined as follows: Recombinant truncated stromelysin (human sequence) produced in E. coli was prepared by expression and purification of the protein as described by Ye et al., Biochemistry, 1992, 31, 11231-11235. The enzyme was assayed by its cleavage of the thiopeptide ester substrate Ac-Pro-Leu-Gly-[2-mercapto-4-methyl-pentanoyl]-Leu-Gly-OEt described by Weingarten and Feder, Anal. Biochem., 1985, 147, 437-440 (1985), as a substrate of vertebrate collagenase. The reported conditions were modified to allow assays to be carried out in a microtiter plate. Upon hydrolysis of the thioester bond, the released thiol group reacts rapidly with 5,5'-dithio-bis(2-nitrobenzoic acid) (DTNB), producing a yellow color which is measured by a microtiter plate reader set at 405 nm. The rates of cleavage of the substrate by stromelysin in the presence or absence of inhibitors are measured in a 30 min assay at ambient temperature. Solutions of the compounds in DMSO are prepared, and these are diluted at various concentrations into the assay buffer (50 mM MES/NaOH pH 6.5 with 10 mM CaCl2 and 0.2% Pluronic F-68), which is also used for dilution of the enzyme and substrate. The potency of the compounds [IC50 ] are calculated from the inhibition/inhibitor concentration data.
On to `CC(C)C[C@H]1C(=O)N[C@H](C(=O)O)Cc2ccc(cc2)OCCCCC[C@@H]1C(=O)NO` [Example 21], for which the negative logarithm of the IC50 (pIC50) was 7.41. `COC(=O)[C@@H]1Cc2ccc(cc2)OCCCCC[C@H](C(=O)NO)[C@@H](CC(C)C)C(=O)N1` [Example 26]: the pIC50 is 7.57. For the compound `Cc1ccc(CCC[C@H]2C(=O)N[C@H](C(=O)O)Cc3ccc(cc3)OCCCC[C@@H]2C(=O)NO)cc1` [Example 32], the negative-log IC50 (pIC50) was 8.17.

The same test, now with this note: Inhibitory potencies against stromelysin; 30 min assay at ambient temperature, pH 6.5; read-out: IC50.
For the compound `CNC(=O)[C@@H]1Cc2ccc(cc2)OCCCC[C@H](C(=O)NO)[C@@H](CC(C)C)C(=O)N1` [8 anti], the negative-log IC50 (pIC50) was 8.41. As to `CNC(=O)[C@@H]1Cc2ccc(cc2)OCCCC[C@@H](C(=O)NO)[C@@H](CC(C)C)C(=O)N1` [8 syn], the pIC50 is 6.24. Same read-out and setting: then `CC(C)C[C@H]1C(=O)N[C@H](C(=O)NCCc2ccc(S(N)(=O)=O)cc2)Cc2ccc(cc2)OCCCC[C@@H]1C(=O)NO` [Example 1], with 8.16; and `CC(C)C[C@H]1C(=O)N[C@H](C(=O)NCCc2ccccc2)Cc2ccc(cc2)OCCCC[C@@H]1C(=O)NO` [Example 2], with 8.14; and `CC(C)C[C@H]1C(=O)N[C@H](C(=O)NC2CC2)Cc2ccc(cc2)OCCCC[C@@H]1C(=O)NO` [Example 3], with 8.24. Regarding `CC(C)C[C@H]1C(=O)N[C@H](C(=O)Nc2ccccc2)Cc2ccc(cc2)OCCCC[C@@H]1C(=O)NO` [Example 4], the pIC50 was 8.62. On to `CC(C)C[C@H]1C(=O)N[C@H](C(=O)N2CCOCC2)Cc2ccc(cc2)OCCCC[C@@H]1C(=O)NO` [Example 5], for which the negative-log IC50 (pIC50) is 8.03.

On to `CC(C)C[C@H]1C(=O)N[C@H](C(=O)Nc2ccccn2)Cc2ccc(cc2)OCCCC[C@@H]1C(=O)NO` [Example 6], for which the negative logarithm of the IC50 (pIC50) is 8.59. For the compound `CC(C)C[C@H]1C(=O)N[C@H](c2nc3ccccc3[nH]2)Cc2ccc(cc2)OCCCC[C@@H]1C(=O)NO` [Example 7], the negative logarithm of the IC50 (pIC50) is 8.44. Turning to `CNC(=O)[C@@H]1Cc2ccc(cc2)OCCC[C@H](C(=O)O)[C@@H](CC(C)C)C(=O)N1` [Example 9], the pIC50 is 5.68.

In the case of `CNC(=O)[C@@H]1Cc2ccc(cc2)OCCC[C@H](C(=O)NO)[C@@H](CC(C)C)C(=O)N1` [Example 10], the negative-log IC50 (pIC50) is 8.11. Regarding `CNC(=O)[C@@H]1Cc2ccc(cc2)OCCCCC[C@H](C(=O)NO)[C@@H](CC(C)C)C(=O)N1` [Example 11], the negative-log IC50 (pIC50) was 8.21. Same read-out and setting: to `CNC(=O)[C@@H]1Cc2ccc(cc2)OCCCCCC[C@H](C(=O)NO)[C@@H](CC(C)C)C(=O)N1` [Example 12] belongs 7.92; to `CNC(=O)[C@@H]1Cc2ccc(cc2)/C=C\CCCCC(C(=O)NO)[C@@H](CC(C)C)C(=O)N1` (stereo partly shown) [Example 13], 8.62. For the compound `CC(C)C[C@H]1C(=O)N[C@H](C(=O)c2ccccc2)Cc2ccc(cc2)OCCCCC[C@@H]1C(=O)NO` [Example 14], the negative-log IC50 (pIC50) is 8.57. Turning to `CC(C)C[C@H]1C(=O)N[C@H](C(=O)c2ccc[nH]2)Cc2ccc(cc2)OCCCCC[C@@H]1C(=O)NO` [Example 15], the pIC50 is 8.14. On to `CNC(=O)[C@@H]1Cc2ccc(cc2)NC(=O)CCCC[C@H](C(=O)NO)[C@@H](CC(C)C)C(=O)N1` [Example 16], for which the negative logarithm of the IC50 (pIC50) is 7.64. On to `CNC(=O)[C@@H]1Cc2ccc(cc2)N(C(=O)OCc2ccccc2)CCCCC[C@H](C(=O)NO)[C@@H](CC(C)C)C(=O)N1` [Example 18], for which the pIC50 was 9.21. Turning to `CNC(=O)[C@@H]1Cc2ccc(cc2)NCCCCC[C@H](C(=O)NO)[C@@H](CC(C)C)C(=O)N1` [Example 19], the pIC50 was 7.70. Consider `CC(C)C[C@H]1C(=O)N[C@H](C(=O)OCc2ccccc2)Cc2ccc(cc2)OCCCCC[C@@H]1C(=O)NO` [Example 20], for which the negative-log IC50 (pIC50) is 7.04. Still for that read-out and setting: then `CC(C)C[C@H]1C(=O)N[C@H](c2nc(-c3ccccc3)c[nH]2)Cc2ccc(cc2)OCCCCC[C@@H]1C(=O)NO` [Example 23], with 8.09. On the same count and under the same terms, to `CC(C)C[C@H]1C(=O)N[C@H](C(=O)N2CCC[C@H]2C(=O)OCc2ccccc2)Cc2ccc(cc2)OCCCCC[C@@H]1C(=O)NO` [Example 24] belongs 8.05; to `CC(C)C[C@H]1C(=O)N[C@H](C(=O)N2CCC[C@H]2C(=O)O)Cc2ccc(cc2)OCCCCC[C@@H]1C(=O)NO` [Example 25], 7.36; to `CNC(=O)[C@@H]1Cc2ccc(cc2)OCCCCC[C@H](C(=O)O)[C@@H](CCCc2ccc(C)cc2)C(=O)N1` [Example 30], 7.70. On the same count and under the same terms, to `CNC(=O)[C@@H]1Cc2ccc(cc2)OCCCCC[C@H](C(=O)NO)[C@@H](CCCc2ccc(C)cc2)C(=O)N1` [Example 31] belongs 8.54.

Turning to `CCCc1ccc(CC[C@H]2C(=O)N[C@H](C(=O)NC)Cc3ccc(cc3)OCCCC[C@@H]2C(=O)NO)cc1` [Example 34], the pIC50 was 8.82.

For the compound `Cc1ccc(CCC[C@H]2C(=O)N[C@H](C(=O)NCCN(C)C)Cc3ccc(cc3)OCCCC[C@@H]2C(=O)NO)cc1` [Example 38], the negative-log IC50 (pIC50) was 9.25. Regarding `CNC(=O)[C@H]1NC(=O)[C@H](CC(C)C)[C@@H](C(=O)NO)CCCCCOc2ccc1cc2` [Example 41], the pIC50 is 7.59.

Broadly, the pIC50 is the negative decadic logarithm of the IC50, by convention in mol/L.

For the origin of these results see patent publication US5952320A, “Macrocyclic inhibitors of matrix metalloproteinases and TNFα secretion” (Abbott Laboratories, priority 1997, dated 1999).
